{"source": "patent US9975881B2", "about": "“Compound” (ASTRAZENECA AB, priority 2011, dated 2018)", "key": {"[1]": {"assay": "Distribution coefficient at pH 7.4 (Log D7.4), 1-octanol/phosphate buffer", "assay_type": "physicochemical", "settings": "1-octanol / 0.02 M phosphate buffer pH 7.4", "description": "Measurement of Distribution Coefficient at pH 7.4 (Log D7.4)\nCompounds of interest (1 mg) were dispensed into individual 1-mL polypropylene vials, held within a 96-well plate along with 1-octanol (700 μL), and presaturated with 0.02 M phosphate buffer (pH 7.4). The plate was then shaken overnight followed by centrifugation (800 g for 15 min) to sediment any undissolved solids. Up to 24 mixtures of 10 compounds (or less) were then prepared by pooling the 1-octanol solutions (100 μL) into a plate of 12-mL glass sample tubes. […] The pooling of compounds was performed robotically and controlled using automatically generated bespoke work lists. If a mixture contained less than 10 compounds, then 1-octanol (presaturated with 0.02 M phosphate buffer [pH 7.4]) was added to make up the total volume of the 1-octanol phase to 1 mL. 1-Octanol-saturated phosphate buffer (0.02 M, pH 7.4, 2 mL) was then added to each mixture before shaking (450 rpm for 30 min) and centrifugation (800 g for 15 min). The final 1-octanol and aqueous phases of each partition mixture were then robotically separated. […] Log D7.4 was calculated from the ratio of one of the 1-octanol relative concentrations to the interpolated aqueous relative concentration after correcting for the extent of dilution of both the 1-octanol and aqueous solutions."}, "[2]": {"assay": "Dog half-life (measured), in vivo pharmacokinetics", "settings": "male, 1 mg/kg; elimination half-life in plasma, intravenous 30 minute infusion, beagle dog, mean of a minimum of two dogs", "excerpt": "The following describes the methods used to obtain in vivo pharmacokinetic parameters in the male beagle dog. It is applicable for use with any compound but may need modification based on such parameters as solubility, assay sensitivity, anticipated clearance and half-life, when the default formulation, dose level or sampling intervals may be inappropriate. The method described here represents a standard approach from which justified and documented modifications can be made.\nA standard dose solution of 1 mg·mL^−1 was prepared. The recommended dose vehicle (if the compound was not sufficiently soluble in isotonic saline) was 10%/o DMSO:90% sterile water or saline with pH adjustment using 1 M HCl or NaOH. […]\nBlood samples (˜1 ml) were taken into EDTA treated sampling tubes and plasma was prepared by centrifugation (3 minutes at 13000 rpm) soon after sample collection. Samples were taken at pre determined times over 24 hours (e.g. 0, 5, 15, 30, 35, 45, 60, 90, 120, 180, 240, 300, 360, 420, 720, 1440 minutes). The concentration of the analyte(s) was quantitatively determined in plasma by mass spectrometry. […]\nTo each of the test samples, dose tests, standards and QCs 100 μL (90 μl for dose tests, standards and QCs) of methanol was added followed by 100 μl of internal standard. […] Aliquots (120 μL) of each sample were transferred into a microtitre plate ready for analysis via HPLC/MS-MS. […]"}}}
{"smiles": "CC1CN(S(=O)(=O)Nc2cc(O[C@H](C)[C@@H](O)CO)nc(SCc3ccc(F)cc3)n2)C1", "note": "[Example 1, N-(6-((2R,3S)-3,4-Dihydroxybutan-2-yloxy)-2-(4-fluorobenzylthio)pyrimidin-4-yl)-3-methylazetidine-1-sulfonamide]", "values": [{"measurement": "logD", "setting": "[1]", "value": 1.9}, {"measurement": "half-life", "setting": "[2]", "value": 3.7, "unit": "h"}]}
